# Reference: patent publication US6114537A, “Process for scavenging thiols” (Apotex Inc., priority 1997, dated 2000)
# pEC50: −log10 of the molar value.
# Tests used:
# Papain = target: T1, Papain (Carica papaya, UniProt P00784); assay: Inhibition of Papain, enzyme assay and kinetic measurements; type: biochemical; conditions: for kinact/KI: approximates kon, read-out: kabs /[inh] (papain); for inhibition at 1 µM: 1 μM [inhibitor]; for inhibition at 200 µM: 200 μM [inhibitor] (printed 200 μm)
# T1 sequence (P00784 134-345): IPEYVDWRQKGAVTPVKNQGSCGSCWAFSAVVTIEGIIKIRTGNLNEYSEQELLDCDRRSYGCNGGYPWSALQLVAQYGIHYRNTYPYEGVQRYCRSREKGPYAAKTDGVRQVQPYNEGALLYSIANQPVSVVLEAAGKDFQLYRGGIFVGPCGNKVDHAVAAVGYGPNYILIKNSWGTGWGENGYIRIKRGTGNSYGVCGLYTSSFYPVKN
# From the text: (§1) Inhibition of Cathepsin B, Cathepsin L and Papain by 1,2,4-thiadiazoles and 1,2,4-thiadiazole[4,5-a]benzimidazole derivatives: Enzyme Assays and Kinetic Measurements
# (§2) Conditions for the above experiments can be found in the following references: Menard R. et al., Biochemistry 1990, 29, 6706-6713; Fox T. et al., Biochemistry 1992, 31, 12571-12576; Cannona E. et al., Biochemistry 1996, 35, 8149-8157. A typical experiment consisted of choosing an inhibitor concentration such that maximum inhibition could be achieved in less than two hours, monitoring the complete progress curve (i.e. fluorescence vs time), and analyzing the data. The analysis yield two parameters: the % inhibition once steady state was re ached, and a rate constant which represents the rate at which this steady state is reached. Typically, the enzyme activity decreases with time until the maximum level of inhibition is reached (i.e. steady state) where the enzyme activity remains constant. Since significant levels of activity could still be detected at steady state (i.e. inhibition is not complete), the data was fitted to equation (1), which is normally used for slow-binding reversible inhibitors. [formula]
# (§3) % inhibition=(1-v1 /vo).100 (2)
# (§4) In this equation, [P] represents the concentration of product (obtained from the flourescene readings), kabs is the first order rate constant to reach steady state, vo is the initial rate which corresponds to the rate in the absence of the inhibitor, and vi is the rate of the inhibited enzyme at steady state. The % inhibition was obtained by using equation (2), where the rate measured in the absence of the inhibitor was used for vo. An example of a simple mechanism for such a process is given below: [formula] For this mechanism, the value of kabs determined experimentally would correspond to:
# (§5) The value of kabs varies with inhibitor concentration. Often koff is much slower than kon [inh] and kabs /[inh] can be used to approximate kon. This approach is used in this study and the results are shown in below: […]
# Cathepsin B = Cathepsin B (Rattus norvegicus, UniProt P00787); assay: Inhibition of Cathepsin B, enzyme assay and kinetic measurements; type: biochemical; conditions: for kinact/KI: approximates kon, read-out: kabs /[inh] (cathepsin B); for inhibition at 200 µM: 200 μM [inhibitor]
# Cathepsin B, sequence (P00787 80-339): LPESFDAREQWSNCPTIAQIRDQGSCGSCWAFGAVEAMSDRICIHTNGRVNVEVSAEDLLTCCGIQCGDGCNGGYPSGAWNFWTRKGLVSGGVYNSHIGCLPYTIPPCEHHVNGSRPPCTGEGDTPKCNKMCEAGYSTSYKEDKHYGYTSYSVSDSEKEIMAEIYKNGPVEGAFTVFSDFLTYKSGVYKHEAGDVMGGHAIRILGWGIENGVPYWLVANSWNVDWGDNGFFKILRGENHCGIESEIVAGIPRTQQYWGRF
# From the text: as §1, §2, §3, §4, §5
# Cathepsin L = Cathepsin L (Homo sapiens, UniProt P07711); assay: Inhibition of Cathepsin L, enzyme assay and kinetic measurements; type: biochemical; conditions: for kinact/KI: approximates kon, read-out: kabs /[inh] (cathepsin L); for inhibition at 5 µM: 5 μM [inhibitor]
# Cathepsin L, sequence (P07711 114-333): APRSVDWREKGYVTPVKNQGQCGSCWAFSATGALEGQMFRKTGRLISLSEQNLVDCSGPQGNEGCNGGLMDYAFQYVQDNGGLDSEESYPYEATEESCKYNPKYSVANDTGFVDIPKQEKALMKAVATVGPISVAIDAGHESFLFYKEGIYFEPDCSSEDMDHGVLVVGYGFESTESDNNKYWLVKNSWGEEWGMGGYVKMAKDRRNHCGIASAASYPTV
# From the text: as §1, §2, §3, §4, §5
# hog H^+ /K^+ ATPase = target: T2, hog H^+ /K^+ ATPase (Sus scrofa, UniProt P19156); assay: Gastric ATPase enzyme inhibition assay; type: biochemical; conditions: hog gastric vesicles, K+ stimulated ATP hydrolysis
# T2 construct: Potassium stimulated ATP hydrolysis using hog gastric (GI) vesicles; from tissue; host or cells: hog gastric (GI) vesicles
# T2 sequence (P19156 2-1034 limits assumed): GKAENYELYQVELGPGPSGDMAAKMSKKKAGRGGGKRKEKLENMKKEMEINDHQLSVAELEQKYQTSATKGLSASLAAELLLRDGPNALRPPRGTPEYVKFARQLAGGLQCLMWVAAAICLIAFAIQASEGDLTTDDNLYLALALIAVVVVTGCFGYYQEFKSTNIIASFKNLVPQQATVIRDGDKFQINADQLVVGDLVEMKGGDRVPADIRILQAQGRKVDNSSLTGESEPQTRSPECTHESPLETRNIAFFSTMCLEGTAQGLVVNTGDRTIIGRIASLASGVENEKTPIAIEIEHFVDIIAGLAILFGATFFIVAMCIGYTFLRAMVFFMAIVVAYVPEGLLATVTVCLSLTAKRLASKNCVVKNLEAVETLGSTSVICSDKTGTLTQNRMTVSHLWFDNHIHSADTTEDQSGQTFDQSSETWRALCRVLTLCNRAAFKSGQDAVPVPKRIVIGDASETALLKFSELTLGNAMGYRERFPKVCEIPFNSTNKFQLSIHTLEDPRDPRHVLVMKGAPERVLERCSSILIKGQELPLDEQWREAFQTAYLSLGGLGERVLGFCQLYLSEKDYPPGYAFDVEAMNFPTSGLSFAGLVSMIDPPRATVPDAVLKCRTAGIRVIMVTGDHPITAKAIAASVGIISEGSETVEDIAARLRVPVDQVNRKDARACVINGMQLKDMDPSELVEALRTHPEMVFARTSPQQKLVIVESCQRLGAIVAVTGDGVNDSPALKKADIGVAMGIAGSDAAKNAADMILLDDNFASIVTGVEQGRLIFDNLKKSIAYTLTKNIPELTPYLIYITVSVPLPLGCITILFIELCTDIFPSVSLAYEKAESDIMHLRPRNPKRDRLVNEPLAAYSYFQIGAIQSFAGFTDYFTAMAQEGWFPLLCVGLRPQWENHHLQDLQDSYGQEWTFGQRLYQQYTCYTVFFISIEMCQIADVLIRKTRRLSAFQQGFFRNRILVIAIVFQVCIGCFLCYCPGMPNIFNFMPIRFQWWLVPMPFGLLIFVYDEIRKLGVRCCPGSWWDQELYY
# T2 sequence (P18434 whole entry partner): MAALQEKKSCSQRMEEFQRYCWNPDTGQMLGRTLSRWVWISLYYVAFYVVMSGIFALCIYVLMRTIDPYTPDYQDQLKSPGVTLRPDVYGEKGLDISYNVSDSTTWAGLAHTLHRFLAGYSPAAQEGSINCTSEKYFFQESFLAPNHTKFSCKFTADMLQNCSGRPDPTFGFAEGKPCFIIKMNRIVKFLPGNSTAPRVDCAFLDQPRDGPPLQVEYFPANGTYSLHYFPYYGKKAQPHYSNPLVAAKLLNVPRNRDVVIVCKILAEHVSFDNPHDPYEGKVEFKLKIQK
# Description: Gastric ATPase enzyme inhibition assay
# The enzyme used is the hog H^+ /K^+ ATPase (Sachs, et al. J. Biol. Chem. 251:7690-7698, 1976). A modified procedure reported by Yoda A. and Hokin, L.E., Biochem. Res. Commun., 1970, 800-884 is used. Potassium stimulated ATP hydrolysis using hog gastric (GI) vesicles, a preparation enriched in H^+ /K^+ ATPase, is measured.
# The difference between activity in the presence of Mg^++ and presence of Mg^++ and K^+ 0 is taken as enzyme activity. Nigericin, a K^+ ionophore, is also present in the (+)K^+ incubation mixture to provide access of K^+ to the vesicle interior. Hydrolysis activity is measured by quantitative analysis of a phosphomolybdate complex. […] The optical density of many drugs used for the inhibition of H^+ /K^+ ATPase interfere in this wavelength. Therefore, a modification of the as say was used wherein the phosphomolybdate complex was reduced with Fiske and Subbarow reducer (1-amino-2-naphthol-4-[…] plus sodium sulfite). This shifts the optical density from 3 20 nm for the oxidized phosphomolybdate complex to 600-700 nm. This modification has the added advantage of providing a means of automated assay when multiple samples being tested. In this modification, the optical density of the assay mixtures was read at 700 nm.
# Basal Mg^++ levels are measured in […], 2 mM Na2 ATP, 40 mM Pipes-tris, pH 6.10. 20 mM KCl and 10 μg/ml nigericin is added to determine the extent of stimulation by K^+. Test compounds or vehicle are then added. Enzyme (10 μg/ml) is then added to initiate the reaction. The final volume is 200 μl. The protocol for these assays is shown below.
# Zero blanks (water controls) and phosphate standards (200 μl) are added appropriate for assays used: […], 0.050, 0.075, 0.1 . . . 0.5 mM standards. The order of the addition of reagents generally follows as described above. However, it may be more preferable to add either enzyme before ATP if it is important to provide time for pre-cubation with test compounds. Time additions of the last reagent are used to provide a uniform assay time.
# The reaction is run for 30 min. to 1 hour. The re action is stopped by addition of 50 μl of a solution prepared by adding 4 volumes of 2.5 M sulfric acid plus one volume of 1.25% (w/v) Fiske and Subbarow reagent. Colour is developed at room temperature for ten minutes and optical density at 700 nm is determined. In the event that a white precipitate forms, the clear supernatants (after mixing and setting) can be used for the determination of enzyme activity.
# [1] = Reaction with benzyl mercaptan; type: physicochemical; conditions: organic solvent such as methanol
# From the text: The chemical reactivity of monocyclic 1,2,4-thiadiazole as thiol trapping agent depends on the substituent at the 3 and 5 position of the ring system.
# [2] = Acid stability in 6 molar hydrochloric acid; type: physicochemical; conditions: room temperature
# Description: Acid stability of 7-methoxy-3-[(4-methoxy-3,5-dimethyl-2-pyridyl)oxomethyl]-1,2,4-thiadiazolo[4,5-a]benzimidazole.
# To examine acid stability of the captioned compound, the compound was dissolved in a minimum volume of methanol and the resulting solution was added to a 6 molar solution of hydrochloric acid.
# [3] = steady state, 50 μM [inhibitor]
# [4] = steady state, 200 μM [inhibitor] (printed 200 μm)
compound,measurement,setting,value
COc1nsc(NC(=O)N[C@@H](CC(C)C)C(=O)NCCC(C)C)n1 [Example T11AA],kinact/KI,Papain,3900 M⁻¹ s⁻¹
same,inhibition at 1 µM,Papain; steady state,97%
same,kinact/KI,Cathepsin B,1060 M⁻¹ s⁻¹
same,inhibition at 5 µM,"Cathepsin B; steady state, 5 μM [inhibitor]",56%
same,kinact/KI,Cathepsin L,3480 M⁻¹ s⁻¹
same,inhibition at 5 µM,Cathepsin L; steady state,99%
"O=C(O)c1nsc2nc3ccccc3n12 [sodium 3-carboxylato-1,2,4-thiadiazolo[4,5-albenzimidazole]",kinact/KI,Papain,131 M⁻¹ s⁻¹
same,inhibition at 200 µM,Papain; steady state,99.6%
same,kinact/KI,Cathepsin B,34 M⁻¹ s⁻¹
same,inhibition at 200 µM,Cathepsin B; steady state,85%
same,kinact/KI,Cathepsin L,184 M⁻¹ s⁻¹
same,inhibition at 50 µM,Cathepsin L; [3],98%
"CN1CCN(c2nsc3nc4ccccc4n23)CC1 [3-(4-methyl-1-piperazinyl)-1,2,4-thiadiazolo-[4,5-a]benzimidazole]",kinact/KI,Papain,28 M⁻¹ s⁻¹
same,inhibition at 200 µM,Papain; steady state,99%
same,kinact/KI,Cathepsin B,19 M⁻¹ s⁻¹
same,inhibition at 200 µM,Cathepsin B; steady state,68%
same,pEC50,hog H^+ /K^+ ATPase,5.70
same,kinact/KI,Cathepsin L,24 M⁻¹ s⁻¹
same,inhibition at 200 µM,Cathepsin L; [4],98%
"Cc1nsc(N(Cc2ccccc2)Cc2ccccc2)n1 [3-methyl-5-dibenzylamino-1,2,4-thiadiazole]",reaction with benzyl mercaptan,[1],do not react with benzyl mercaptan
"CC(C)CCNC(=O)[C@H](CC(C)C)NC(=O)c1nsc2nc3ccccc3n12 [{1,2,4-thiadiazolo[4,5-a]benzimidazol-3-yl}-carbonyl-L-leucyl isoamylamide]",kinact/KI,Papain,500 M⁻¹ s⁻¹
same,inhibition at 5 µM,"Papain; steady state, 5 μM [inhibitor]",95%
same,kinact/KI,Cathepsin L,307 M⁻¹ s⁻¹
same,inhibition at 5 µM,Cathepsin L; steady state,93%
"c1cncc(-c2nsc(-c3cccnc3)n2)c1 [3,5-di(3-pyridyl)-1,2,4-thiadiazole]",reaction with benzyl mercaptan,[1],do not react with benzyl mercaptan
"c1ccc2c(c1)nc1snc(NCCN3CCOCC3)n12 [3-[2-(N-morpholino)ethylamino]l,2,4-thiadiazolo-[4,5-a]benzimidazole]",pEC50,hog H^+ /K^+ ATPase,6.70
"Cc1nsc(NCc2ccccc2)n1 [3-methyl-5-benzylamino-1,2,4-thiadiazole]",reaction with benzyl mercaptan,[1],do not react with benzyl mercaptan
"c1ccc2c(c1)nc1snc(N3CCNCC3)n12 [3-(1-piperazinyl)-1,2,4-thiadiazolo[4,5-a]benzimidazole]",pEC50,hog H^+ /K^+ ATPase,6.00
"COC(=O)[C@@H]1CCCN1c1nsc2nc3ccccc3n12 [1,2,4-thiadiazolo [4,5-a]benzimidazol-3-yl-L-proline methyl ester]",kinact/KI,Papain,356 M⁻¹ s⁻¹
same,inhibition at 0.26 µM,"Papain; steady state, 0.26 μM [inhibitor]",97%
same,kinact/KI,Cathepsin B,626 M⁻¹ s⁻¹
same,inhibition at 10 µM,"Cathepsin B; steady state, 10 μM [inhibitor], % sign not given",88%
same,kinact/KI,Cathepsin L,1050 M⁻¹ s⁻¹
same,inhibition at 10 µM,"Cathepsin L; steady state, 10 μM [inhibitor]",99%
"c1ccc2c(c1)nc1snc(CN3CCOCC3)n12 [3-(morpholinomethyl)-1,2,4-thiadiazolo[4,5-a]benzimidazole]",kinact/KI,Papain,7 M⁻¹ s⁻¹
same,inhibition at 200 µM,Papain; steady state,92%
same,kinact/KI,Cathepsin B,8 M⁻¹ s⁻¹
same,inhibition at 200 µM,Cathepsin B; steady state,60%
same,pEC50,hog H^+ /K^+ ATPase,6.70
same,kinact/KI,Cathepsin L,7 M⁻¹ s⁻¹
same,inhibition at 200 µM,"Cathepsin L; steady state, 200 μM [inhibitor], % sign not given",80%
"COc1ccc2[nH]c([S+]([O-])Cc3ncc(C)c(OC)c3C)nc2c1 (stereo not shown) [Omeprazole, reference compound]",acid stability,[2],complete decomposition in a few minutes
"c1ccc2c(c1)nc1snc(OCCN3CCOCC3)n12 [3-[2-(N-morpholino)ethoxy]-1,2,4-thiadiazolo[4,5-a]benzimidazole]",kinact/KI,Papain,5560 M⁻¹ s⁻¹
same,inhibition at 0.66 µM,"Papain; steady state, 0.66 μM [inhibitor]",99.6%
same,kinact/KI,Cathepsin B,107 M⁻¹ s⁻¹
same,inhibition at 50 µM,Cathepsin B; [3],91%
same,kinact/KI,Cathepsin L,356 M⁻¹ s⁻¹
same,inhibition at 25 µM,"Cathepsin L; steady state, 25 μM [inhibitor]",99%
"COc1nsc(N)n1 [3-methoxy-5-amino-1,2,4-thiadiazoles, 5-amino-3-methoxy-1,2,4-thiadiazole]",reaction with benzyl mercaptan,[1],reacted with benzyl mercaptan
"O=C(c1ccccn1)c1nsc2nc3ccccc3n12 [3-[oxo(2-pyridyl)methyl]-1,2,4-thiadiazolo [4,5-a]benzimidazole]",kinact/KI,Papain,2480 M⁻¹ s⁻¹
same,inhibition at 1 µM,Papain; steady state,79%
same,kinact/KI,Cathepsin B,15 M⁻¹ s⁻¹
same,inhibition at 200 µM,Cathepsin B; steady state,58%
same,kinact/KI,Cathepsin L,68 M⁻¹ s⁻¹
same,inhibition at 200 µM,Cathepsin L; [4],99%
